Results: publication PMC5760651, “Peptidomimetic blockade of MYB in acute myeloid leukemia” (Nature Communications, 2018)
Non-standard residues stand in square brackets, D forms with d. Residues, ends and D or L forms follow the SMILES beside them.

Tests used:
C57BL/6J mice = test: Peripheral blood counts after 7 days of treatment; type: in vivo, mouse; conditions: 25 mg/kg IP daily
Protocol: All mouse experiments were carried out in accordance with the Memorial Sloan Kettering Institutional Animal Care and Use Committee. For toxicity studies, female C57BL/6J mice (The Jackson Laboratory, Bar Harbor, Maine, USA) were treated with MYBMIM peptide suspended in PBS and administered daily through intraperitoneal injection at a dose of 25 mg/kg for a total of 7 days. Mice were sacrificed at the end of treatment for hematologic, biochemical and histologic analyses. For pharmacokinetic studies, C57BL/6J mice (The Jackson Laboratory, Bar Harbor, Maine, USA) were treated with a single IP injection of 25 mg/kg BIO-MYBMIM, and blood plasma was collected 30 min, 2 h, 4 h, and 24 h post-injection. Quantification of BIO-MYBMIM was measured using the Quant-Tag Biotin kit (Vector Labs, cat. # BDK-2000) following the manufacturer instructions. For patient-derived xenografts, two hundred thousand primary AML MLL-rearranged leukemia cells were suspended in […] of PBS and transplanted via tail vein injection into 8-week-old sublethally irradiated (200 rad) female NOD.Cg-Prkdc(scid)Il2rg(tm1Wjl)/SzJ mice (The Jackson Laboratory, Bar Harbor, Maine, USA). […] Mice were treated from days 3–17 of this study for a total of 14 days and then monitored daily with clinical examination for survival analysis.

MYB:CBP/P300 complex = test: Co-immunoprecipitation of MYB:CBP/P300 complex from MV-411 cells; type: binding, human; conditions: 20 μM, immunoprecipitation with anti-MYB, 3 h, 4 °C, western blot
Protocol: Cells were lysed in RIPA buffer (Thermo Fisher) supplemented with a protease inhibitor mix comprised of AEBSF (0.5 mM concentration, Santa Cruz, SC-202041B), Bestatin (0.01 mM, Fisher/Alfa Aesar, J61106-MD), Leupeptin (0.1 mM, Santa Cruz, SC-295358B), and Pepstatin (0.001 mM, Santa Cruz, SC-45036A). Lysates were mechanically disrupted using Covaris S220 adaptive focused sonicator, according to the manufacturer’s instructions (Covaris, Woburn, CA). Lysates were cleared by centrifugation for 15 min at 18,000 × g and clarified lysates were quantified using the bicinchoninic acid assay (Pierce). Clarified lysates (20 μg of protein) were resolved using sodium dodecyl sulfate-polyacrylamide gel electrophoresis, and electroeluted using the Immobilon FL PVDF membranes (Millipore, Billerica, MA, USA). Membranes were blocked using the Odyssey Blocking buffer (Li-Cor, Lincoln, Nebraska, USA). The following primary antibodies were used as indicated: anti-MYB (1:1000, 05-175, Millipore), anti-CBP (1:1000, PA1-847, Invitrogen), anti-BCL2 (1:1000, 200-401-222, Rockland), anti-β actin (1:1000, 8H10D10, Cell Signaling). […] Blotted membranes were visualized using secondary antibodies conjugated to IRDye 800CW or IRDye 680RD (Goat anti-rabbit, 1:15,000, and goat anti-mouse, 1:15,000) and the Odyssey CLx fluorescence scanner, according to manufacturer’s instructions (Li-Cor, Lincoln, Nebraska, USA). […]

MV-411 cells = test: Growth and survival of MV-411 cells with ectopic BCL2 (MIG-BCL2) or empty MIG vector; type: cell-based, human; conditions: 20 μM
Protocol: Cells were resuspended and plated at a concentration of 2 × 10^5 cells in 200 μl in 96-well tissue culture plates. Media with peptides was replaced every 48 h. To assess the number of viable cells, cells were resuspended in PBS and 10 µl of suspension was mixed in a 1:1 ratio with 0.4% Trypan Blue (Thermo Fisher) and counted using a hemacytometer (Hausser Scientific, Horsham, PA, USA). To assess viability using an ATP-based assay, cell viability was assessed using the CellTiter-Glo Luminescent Viability assay, according to the manufacturer’s instructions (Promega). Luminescence was recorded using the Infinite M1000Pro plate reader using integration time of 250 ms (Tecan).
The MIG-BCL2 vector was packaged using pUMVc and pCMV-VSVG vectors in HEK 293T cells and the FuGENE 6 transfection reagent, according to manufacturer’s instructions (Promega). Virus supernatant was collected at 48 and 72 h post transfection, pooled, filtered and stored at −80 °C. Cells were transduced with virus particles at a multiplicity of infection of 1 by spin inoculation for 90 min at 3500 rpm at 35 °C in the presence of 8 μg/ml hexadimethrine bromide. Two days after transduction, cells were isolated using fluorescence-activated cell sorting (FACSAria III, BD Bioscience, San Jose, CA, USA).

MV-411 and MOLM-13 cells = test: qRT-PCR of BCL2 mRNA expression; type: cell-based, human; conditions: 20 μM, 6 h
Protocol: RNA was isolated using Trizol reagent according to the manufacturer’s instructions (Life Technologies). Complementary DNA was synthesized using the SuperScript III First-Strand Synthesis system according to the manufacturer’s instructions (Invitrogen). Quantitative real-time PCR was performed using the KAPA SYBR FAST PCR polymerase with 20 ng template and 200 nM primers, according to the manufacturer’s instructions (Kapa Biosystems, Wilmington, MA, USA). PCR primers are listed in Supplementary Table 4. Ct values were calculated using ROX normalization using the ViiA 7 software (Applied Biosystems).

CC[C@@H](C)[C@@H](NC(=O)[C@@H](CCCCN)NC(=O)[C@@H](CCC(=O)O)NC(=O)[C@@H](CC(C)C)NC(=O)[C@@H](CCC(=O)O)NC(=O)[C@@H](CC(C)C)NC(=O)[C@@H](CC(C)C)NC(=O)[C@@H](CC(C)C)NC(=O)[C@@H](CCSC)NC(=O)[C@@H](CO)NC(=O)[C@H](NC(=O)[C@@H](CCC(=O)O)NC(=O)[C@@H](CC(N)=O)NC(=O)[C@@H](CCC(=O)O)NC(=O)[C@@H](CC(C)C)NC(=O)[C@@H](CCCCN)NC(C)=O)[C@H](C)O)C(=O)N[C@H](CCCNC(=N)N)C(=O)N[C@H](CCCCN)C(=O)NCC(=O)NCC(=O)N[C@H](CCCNC(=N)N)C(=O)N[C@H](CCCNC(=N)N)C(=O)N[C@H](CCCNC(=N)N)C(=O)N[C@H](CCC(N)=O)C(=O)N[C@H](CCCNC(=N)N)C(=O)N[C@H](CCCNC(=N)N)C(=O)N[C@H](CCCCN)C(=O)N[C@H](CCCCN)C(=O)N[C@H](CCCNC(=N)N)C(=O)NCC(=O)N[C@H](Cc1ccc(O)cc1)C(N)=O [MYBMIM] (Ac-[dK][dL][dE][dN][dE][dT][dS][dM][dL][dL][dL][dE][dL][dE][dK][dI][dR][dK]GG[dR][dR][dR][dQ][dR][dR][dK][dK][dR]G[dY]-NH2)
Peripheral blood counts (total leukocytes, lymphocytes, platelets, blood hemoglobin) (C57BL/6J mice): no significant changes | Dissociation of the cellular MYB:CBP/P300 complex (MYB:CBP/P300 complex): significant dissociation | Cell growth and survival of mock-treated and MIG empty vector control transduced MV-411 cells (MV-411 cells; p = 0.003): significant reduction of cell growth and survival | MYBMIM-induced apoptosis in cells ectopically overexpressing BCL2 (MV-411 cells; MV-411 MIG-BCL2 cells): largely, though not completely, rescued | BCL2 expression downregulation (MV-411 and MOLM-13 cells): more than two-fold
